Source: US9375493B2, “Bacterial imaging agents and methods of using same” (VisEn Medical, Inc., priority 2012, dated 2016)

Legend:
[1] = tested on: Staphylococcus epidermidis; assay: In vivo imaging of Staphylococcus epidermidis thigh infection (FMT2500); parameters: species or system SKH1-E female mice; conditions: 10^8 CFUs i.m. left thigh; 5 nM agent i.v. about 24 hours after inoculation; imaged one, two and three hours after agent injection; all time points
Experimental: SKH1-E female mice, aged 6-8 weeks, were injected intramuscularly with 10^8 CFUs (colony forming units) of Staphylococcus epidermidis in the left thigh. Mice were given intravenous injections of 5 nM of bacterium targeting agent, compound A7, approximately 24 hours after the initial bacterial inoculation.

Escherichia coli [2] = assay: In vitro binding of bacterium targeting agent to bacteria, flow cytometry; assay type: cell-based; conditions: 10 μM final in TES buffer, RT, 1 hour; FIG. 1A/1B
Experimental: (§1) Bacteria were grown at 37° C. to an OD600=0.3-0.5 and centrifuged at 3500 rpm for 4 minutes before the subsequent pellets were re-suspended in TES buffer. Bacteria with or without targeting agent were grown under the same conditions. Bacterial targeting agents, compound A7, were incubated with bacterial pellets at a concentration of 10 μM final in TES buffer at RT for 1 hour. […] In this experiment, fluorescence is only associated with bacteria in the presence of the bacterium targeting agent described herein.

[3] = tested on: Staphylococcus epidermidis; assay: as above; assay type: cell-based; conditions: 10 μM final in TES buffer, RT, 1 hour; FIG. 1A/1B
Experimental: as §1

Escherichia coli [4] = assay: In vivo imaging of Escherichia coli thigh infection (FMT2500); parameters: species or system SKH1-E female mice; conditions: 10^5-10^8 CFUs i.m. left thigh; 5 nM agent i.v. about 24 hours after inoculation; imaged one hour after agent injection
Experimental: SKH1-E female mice, aged 6-8 weeks, were injected intramuscularly in the left thigh with different concentrations of Escherichia coli at 10^5-10^8 CFUs. At approximately 24 hours after the initial bacterial inoculation, mice were given intravenous injections of 5 nM of bacterium targeting agent, compound A7.

CN1/C(=C/C=C(/C=C/C2=[N+](CCCS(=O)(=O)O)c3ccccc3C2(C)C)c2ccc(C(=O)NCCCCCC(=O)NCC(=O)Nc3ccc(CC[N+]45CC[N+](C)(CC4)CC5)cc3)cn2)C(C)(C)c2ccccc21 [Compound A7, 3-(3,3-dimethyl-2-((1E,3Z,5E)-3-(5-((6-((2-((4-(2-(4-methyl-1,4-diazabicyclo[2.2.2]octan-1,4-diium-1-yl)ethyl)phenyl)amino)-2-oxoethyl)amino)-6-oxohexyl)carbamoyl)pyridin-2-yl)-5-(1,3,3-trimethylindolin-2-ylidene)penta-1,3-dien-1-yl)-3H-indol-1-ium-1-yl)propane-1-sulfonate di-acetate]
differentiation between infected and uninfected areas (fluorescence, tomographic imaging) [1]: Statistically significant differentiation between infected and uninfected areas
in vitro binding to bacteria (fluorescence by flow cytometry) (Escherichia coli [2]): in vitro binding
in vitro binding to bacteria (fluorescence by flow cytometry) [3]: in vitro binding
uptake of the agent at the site of infection (tomographic images) (Escherichia coli [4]): clear uptake of the bacterial targeting agent at the site of the infection
